Measurements taken from US20120157452A1, “1H-PYRAZOLO[3,4-B] PYRIDINE COMPOUNDS FOR INHIBITING RAF KINASE” (GENENTECH, INC., priority 2009, published 2012).

Biological target: T1, V600E full-length B-Raf (Homo sapiens, UniProt P15056, V600E)
T1 construct: made in house; host or cells: Sf9 insect cells (baculovirus)
Test: B-Raf IC50 assay: incorporation of radio labeled phosphate from [γ-33P]ATP into FSBA-modified wild-type MEK
Format: biochemical
From the text: Determining the activity of Raf in the sample is possible by a number of direct and indirect detection methods (US 2004/0082014). Activity of human recombinant B-Raf protein may be assessed in vitro by assay of the incorporation of radio labeled phosphate to recombinant MAP kinase (MEK), a known physiologic substrate of B-Raf, according to US 2004/0127496 and WO 03/022840. The activity/inhibition of V600E full-length B-Raf was estimated by measuring the incorporation of radio labeled phosphate from [γ-^33]ATP into FSBA-modified wild-type MEK (see Biological Example 1).
Activity of human recombinant B-Raf protein may be assessed in vitro by assay of the incorporation of radio labeled phosphate to recombinant MAP kinase (MEK), a known physiologic substrate of B-Raf, according to US 2004/0127496 and WO 03/022840. Catalytically active human recombinant B-Raf protein is obtained by purification from sf9 insect cells infected with a human B-Raf recombinant baculovirus expression vector.
The activity/inhibition of V600E full-length B-Raf was estimated by measuring the incorporation of radio labeled phosphate from [γ-^33]ATP into FSBA-modified wild-type MEK. The 30-μL, assay mixtures contained 25 mM Na Pipes, pH 7.2, 100 mM KCl, 10 mM MgCl2, 5 mM β-glycerophosphate, 100 μM Na Vanadate, 4 μM ATP, 500 nCi [γ-^33P]ATP, 1 μM FSBA-MEK and 20 nM V600E full-length B-Raf. Incubations were carried out at 22° C. in a Costar 3365 plate (Corning). Prior to the assay, the B-Raf and FSBA-MEK were preincubated together in assay buffer at 1.5× (20 μL of 30 nM and 1.5 μM, respectively) for 15 minutes, and the assay was initiated by the addition of 10 μL of […]. Following the 60-minute incubation, the assay mixtures were quenched by the addition of 100 μL of 25% TCA, the plate was mixed on a rotary shaker for 1 minute, and the product was captured on a Perkin-Elmer GF/B filter plate using a Tomtec Mach III Harvester. After sealing the bottom of the plate, 35 μL of Bio-Safe II (Research Products International) scintillation cocktail were added to each well and the plate was top-sealed and counted in a Topcount NXT (Packard).

[1] = 4 μM ATP, 60-minute incubation, representative data of multiple tests

T1 sequence (P15056 whole entry V600E): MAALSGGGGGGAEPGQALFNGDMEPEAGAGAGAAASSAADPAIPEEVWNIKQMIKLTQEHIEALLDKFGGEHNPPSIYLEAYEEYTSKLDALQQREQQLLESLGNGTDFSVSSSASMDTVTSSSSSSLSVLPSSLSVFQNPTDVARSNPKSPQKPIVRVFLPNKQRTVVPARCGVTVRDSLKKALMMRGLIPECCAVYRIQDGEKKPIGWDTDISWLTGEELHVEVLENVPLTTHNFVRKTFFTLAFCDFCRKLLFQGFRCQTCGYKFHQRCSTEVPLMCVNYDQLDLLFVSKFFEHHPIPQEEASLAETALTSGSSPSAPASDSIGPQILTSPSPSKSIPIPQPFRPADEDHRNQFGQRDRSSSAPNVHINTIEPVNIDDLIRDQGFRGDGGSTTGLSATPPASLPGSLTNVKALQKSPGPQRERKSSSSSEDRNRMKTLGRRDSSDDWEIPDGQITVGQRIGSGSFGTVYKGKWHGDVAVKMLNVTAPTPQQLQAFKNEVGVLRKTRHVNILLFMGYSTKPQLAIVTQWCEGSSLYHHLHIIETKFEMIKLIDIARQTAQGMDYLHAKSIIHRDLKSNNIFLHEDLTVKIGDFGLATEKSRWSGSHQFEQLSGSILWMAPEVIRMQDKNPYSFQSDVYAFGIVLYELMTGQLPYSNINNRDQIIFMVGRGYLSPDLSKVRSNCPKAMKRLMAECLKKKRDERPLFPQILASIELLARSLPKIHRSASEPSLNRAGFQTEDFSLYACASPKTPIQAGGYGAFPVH

In the case of COc1n[nH]c2ncc(NC(=O)c3c(C)ccc(OCc4ccc(F)cc4)c3F)cc12 [Example 71, 2-fluoro-3-(4-fluorobenzyloxy)-N-(3-methoxy-1H-pyrazolo[3,4-b]pyridin-5-yl)-6-methylbenzamide], the IC50 [1] is reported as 0.66 nM and the IC50 (bound stated) is reported as < 100 nM.

COc1n[nH]c2ncc(NC(=O)c3c(Cl)ccc(OCc4ccc(F)cc4)c3F)cc12 [Example 29, 6-chloro-2-fluoro-3-(4-fluorobenzyloxy)-N-(3-methoxy-1H-pyrazolo[3,4-b]pyridin-5-yl)benzamide] was tested, and the IC50 [1] was 0.65 nM and the IC50 (bound stated) was < 100 nM.

With COc1n[nH]c2ncc(NC(=O)c3c(Cl)ccc(OCc4ccc5c(c4)CCO5)c3F)cc12 [Example 65] the IC50 [1] was 0.63 nM and the IC50 (bound stated) was < 100 nM.

In the case of CN(C)c1n[nH]c2ncc(NC(=O)c3c(Cl)ccc(OCc4ccccc4)c3F)cc12 [Example 7, 3-(benzyloxy)-6-chloro-N-(3-(dimethylamino)-1H-pyrazolo[3,4-b]pyridin-5-yl)-2-fluorobenzamide], the IC50 [1] is reported as 4.76 nM and the IC50 (bound stated) is reported as < 100 nM.

For O=C(Nc1cnc2[nH]nc(OCCF)c2c1)c1c(Cl)ccc(OCc2ccccc2)c1F [Example 18, 3-(benzyloxy)-6-chloro-2-fluoro-N-(3-(2-fluoroethoxy)-1H-pyrazolo[3,4-b]pyridine-5-yl)benzamide], the IC50 [1] was 0.82 nM and the IC50 (bound stated) was < 100 nM.

COc1ccc(COc2ccc(Cl)c(C(=O)Nc3cnc4[nH]nc(OC)c4c3)c2F)cc1 [Example 56, 6-chloro-2-fluoro-N-(3-methoxy-1H-pyrazolo[3,4-b]pyridin-5-yl)-3-(4-methoxy-benzyloxy)benzamide] was tested, and the IC50 [1] was 1.31 nM and the IC50 (bound stated) was < 100 nM.

For COc1n[nH]c2ncc(NC(=O)c3c(Cl)ccc(OCc4cc(C)on4)c3F)cc12 [Example 61, 6-chloro-2-fluoro-N-(3-methoxy-1H-pyrazolo[3,4-b]pyridin-5-yl)-3-((5-methylisoxazol-3-yl)methoxy)benzamide], the IC50 [1] was 80.1 nM and the IC50 (bound stated) was < 100 nM.

For COc1n[nH]c2ncc(NC(=O)c3c(Cl)ccc(OCc4ccc(C(F)(F)F)nc4)c3F)cc12 [Example 43, 6-chloro-2-fluoro-N-(3-methoxy-1H-pyrazolo[3,4-b]pyridin-5-yl)-3-((6-(trifluoromethyl)pyridin-3-yl)methoxy)benzamide], the IC50 [1] was 2.63 nM and the IC50 (bound stated) was < 100 nM.

For COc1n[nH]c2ncc(NC(=O)c3c(Cl)ccc(OCc4ccc5c(c4)OCO5)c3F)cc12 [Example 63, 3-(benzo[d][1,3]dioxol-5-ylmethoxy)-6-chloro-2-fluoro-N-(3-methoxy-1H-pyrazolo[3,4-b]pyridin-5-yl)benzamide], the IC50 [1] was 1.71 nM and the IC50 (bound stated) was < 100 nM.

COc1n[nH]c2ncc(NC(=O)c3c(Cl)ccc(OCc4scnc4C)c3F)cc12 [Example 52, 6-chloro-2-fluoro-N-(3-methoxy-1H-pyrazolo[3,4-b]pyridin-5-yl)-3-((4-methylthiazol-5-yl)methoxy)benzamide] was tested, and the IC50 [1] was 70.4 nM and the IC50 (bound stated) was < 100 nM.

COc1n[nH]c2ncc(NC(=O)c3cc(OCc4ccccc4)ccc3C)cc12 [Example 27, 5-(benzyloxy)-N-(3-methoxy-1H-pyrazolo[3,4-b]pyridin-5-yl)-2-methylbenzamide] was tested, and the IC50 [1] was 2.95 nM and the IC50 (bound stated) was < 100 nM.

With COc1n[nH]c2ncc(NC(=O)c3cc(OCc4ccccn4)ccc3Cl)cc12 [Example 24, 2-chloro-N-(3-methoxy-1H-pyrazolo[3,4-b]pyridin-5-yl)-5-(pyridin-2-ylmethoxy)benzamide] the IC50 [1] was 64.9 nM and the IC50 (bound stated) was < 100 nM.

For COc1n[nH]c2ncc(NC(=O)c3cccc(OCc4ccccc4)c3)cc12 [Example 1, 3-(benzyloxy)-N-(3-methoxy-1H-pyrazolo[3,4-b]pyridin-5-yl)benzamide], the IC50 [1] was 429 nM and the IC50 (bound stated) was < 500 nM.

For COc1n[nH]c2ncc(NC(=O)c3c(Cl)ccc(OCc4nccs4)c3F)cc12 [Example 53, 6-chloro-2-fluoro-N-(3-methoxy-1H-pyrazolo[3,4-b]pyridin-5-yl)-3-(thiazol-2-ylmethoxy)benzamide], the IC50 [1] was 13.2 nM and the IC50 (bound stated) was < 100 nM.

In the case of O=C(Nc1cnc2[nH]nc(C3CC3)c2c1)c1c(Cl)ccc(OCc2ccccc2)c1F [Example 35, 3-(benzyloxy)-6-chloro-N-(3-cyclopropyl-1H-pyrazolo[3,4-b]pyridin-5-yl)-2-fluorobenzamide], the IC50 [1] is reported as 2.1 nM and the IC50 (bound stated) is reported as < 100 nM.

For COc1n[nH]c2ncc(NC(=O)c3c(Cl)ccc(OCc4ccn(C)n4)c3F)cc12 [Example 58, 6-chloro-2-fluoro-N-(3-methoxy-1H-pyrazolo[3,4-b]pyridin-5-yl)-3-((1-methyl-1H-pyrazolo-3-yl)methoxy)benzamide], the IC50 [1] was 37.1 nM and the IC50 (bound stated) was < 100 nM.

CC1(c2n[nH]c3ncc(NC(=O)c4c(Cl)ccc(OCc5ccccc5)c4F)cc23)CC1 [Example 20, 3-(benzyloxy)-6-chloro-2-fluoro-N-(3-(1-methylcyclopropyl)-1H-pyrazolo[3,4-b]pyridin-5-yl)benzamide] was tested, and the IC50 [1] was 3.48 nM and the IC50 (bound stated) was < 100 nM.

With COc1n[nH]c2ncc(NC(=O)c3c(Cl)ccc(OCc4cccc(Cl)c4)c3F)cc12 [Example 50, 6-chloro-3-(3-chlorobenzyloxy)-2-fluoro-N-(3-methoxy-1H-pyrazolo[3,4-b]pyridin-5-yl)benzamide] the IC50 [1] was 1.22 nM and the IC50 (bound stated) was < 100 nM.

COc1n[nH]c2ncc(NC(=O)c3c(Cl)ccc(OCc4ccc(C)cc4)c3F)cc12 [Example 31, 6-chloro-2-fluoro-N-(3-methoxy-1H-pyrazolo[3,4-b]pyridin-5-yl)-3-(4-methyl-benzyloxy)benzamide] was tested, and the IC50 [1] was 0.56 nM and the IC50 (bound stated) was < 100 nM.

For COc1n[nH]c2ncc(NC(=O)c3c(Cl)ccc(OCc4ccc(I)cc4)c3F)cc12 [Example 47, 6-chloro-2-fluoro-3-(4-iodobenzyloxy)-N-(3-methoxy-1H-pyrazolo[3,4-b]pyridin-5-yl)benzamide], the IC50 [1] was 4.14 nM and the IC50 (bound stated) was < 100 nM.

COc1n[nH]c2ncc(NC(=O)c3c(Cl)ccc(OCc4csc(C)n4)c3F)cc12 [Example 59, 6-chloro-2-fluoro-N-(3-methoxy-1H-pyrazolo[3,4-b]pyridin-5-yl)-3-((2-methylthiazol-4-yl)methoxy)benzamide] was tested, and the IC50 [1] was 10.6 nM and the IC50 (bound stated) was < 100 nM.

In the case of COc1n[nH]c2ncc(NC(=O)c3c(Cl)ccc(OCc4ccncn4)c3F)cc12 [Example 40, 6-chloro-2-fluoro-N-(3-methoxy-1H-pyrazolo[3,4-b]pyridin-5-yl)-3-(pyrimidin-4-ylmethoxy)benzamide], the IC50 [1] is reported as 27 nM and the IC50 (bound stated) is reported as < 100 nM.

With COCCOc1n[nH]c2ncc(NC(=O)c3c(Cl)ccc(OCc4ccccc4)c3F)cc12 [Example 13, 3-(benzyloxy)-6-chloro-2-fluoro-N-(3-(2-methoxyethoxy)-1H-pyrazolo[3,4-b]pyridin-5-yl)benzamide] the IC50 [1] was 1.91 nM and the IC50 (bound stated) was < 100 nM.

For COc1n[nH]c2ncc(NC(=O)c3c(Cl)ccc(OCc4cccc(F)c4)c3F)cc12 [Example 28, 6-chloro-2-fluoro-3-(3-fluorobenzyloxy)-N-(3-methoxy-1H-pyrazolo[3,4-b]pyridin-5-yl)benzamide], the IC50 [1] was 0.84 nM and the IC50 (bound stated) was < 100 nM.

With COc1n[nH]c2ncc(NC(=O)c3c(Cl)ccc(OCc4ccc(CN5CCOCC5)cc4)c3F)cc12 [Example 75, 6-chloro-2-fluoro-N-(3-methoxy-1H-pyrazolo[3,4-b]pyridin-5-yl)-3-(4-(morpholinomethyl)benzyloxy)benzamide] the IC50 [1] was 139 nM and the IC50 (bound stated) was < 500 nM.
